Results reported in PubChem BioAssay (NCI).
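Briefly, cells in 96-well plates were exposed to five compound concentrations for 48 h, and endpoints were estimated by linear interpolation. GI50 = concentration required for 50% inhibition of growth. TGI marks complete inhibition of growth.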

Key:
Test in all cases: NCI tumour cell line growth inhibition, 48 h
[1] = test system: SR leukemia
[2] = test system: LOX IMVI melanoma
[3] = test system: HS 578T breast
[4] = test system: HL-60(TB) leukemia
[5] = test system: M14 melanoma
[6] = test system: MDA-MB-231 breast
[7] = test system: MCF7 breast
[8] = test system: SK-MEL-28 melanoma
[9] = test system: UACC-62 melanoma
[10] = test system: SF-539 CNS
[11] = test system: BT-549 breast
[12] = test system: OVCAR-5 ovarian
[13] = test system: A549 NSCLC
[14] = test system: NCI-H226 lung
[15] = test system: T-47D breast
[16] = test system: COLO 205 colon
[17] = test system: MDA-N
[18] = test system: CCRF-CEM leukemia
[19] = test system: MDA-MB-435
[20] = test system: RPMI-8226 leukemia
[21] = test system: HCT-116 colon
[22] = test system: KM12 colon
[23] = test system: SNB-75 CNS
[24] = test system: UO-31 renal
[25] = test system: HCC-2998 colon
[26] = test system: SK-OV-3 ovarian
[27] = test system: SW-620 colon
[28] = test system: RXF 393 renal
[29] = test system: NCI/ADR-RES ovarian
[30] = test system: SF-268 CNS
[31] = test system: EKVX NSCLC
[32] = test system: U251 CNS
[33] = test system: OVCAR-3 ovarian
[34] = test system: NCI-H522 lung
[35] = test system: CAKI-1 renal
[36] = test system: OVCAR-4 ovarian
[37] = test system: SK-MEL-2 melanoma
[38] = test system: SK-MEL-5 melanoma
[39] = test system: MOLT-4 leukemia
[40] = test system: IGROV1 ovarian
[41] = test system: K-562 leukemia
[42] = test system: HT29 colon
[43] = test system: HCT-15 colon
[44] = test system: NCI-H23 lung
[45] = test system: HOP-62 NSCLC
[46] = test system: OVCAR-8 ovarian
[47] = test system: NCI-H460 lung
[48] = test system: UACC-257 melanoma
[49] = test system: SF-295 CNS
[50] = test system: 786-0 renal
[51] = test system: ACHN renal
[52] = test system: HOP-92 NSCLC
[53] = test system: DU-145 prostate
[54] = test system: MALME-3M melanoma
[55] = test system: SNB-19 CNS
[56] = test system: PC-3 prostate
[57] = test system: TK-10 renal
[58] = test system: A498 renal
[59] = test system: SN12C renal

CCO[C@@]12CCC3CC4CC[C@@](OCC)(O1)C4C32 (stereo partly specified)
TGI [1]: > 100 µM | TGI [2]: > 100 µM | TGI [3]: > 100 µM | TGI [4]: > 100 µM | TGI [5]: > 100 µM | TGI [6]: > 100 µM | TGI [7]: > 100 µM | TGI [8]: > 100 µM | TGI [9]: > 100 µM | TGI [10]: > 100 µM | TGI [11]: > 100 µM | TGI [12]: > 100 µM | TGI [13]: > 100 µM | TGI [14]: > 100 µM | TGI [15]: > 100 µM | TGI [16]: > 100 µM | TGI [17]: > 100 µM | TGI [18]: > 100 µM | TGI [19]: > 100 µM | TGI [20]: > 100 µM | TGI [21]: > 100 µM | TGI [22]: > 100 µM | TGI [23]: > 100 µM | TGI [24]: > 100 µM | TGI [25]: > 100 µM | TGI [26]: > 100 µM | TGI [27]: > 100 µM | TGI [28]: > 100 µM | TGI [29]: > 100 µM | TGI [30]: > 100 µM | TGI [31]: > 100 µM | TGI [32]: > 100 µM | TGI [33]: > 100 µM | TGI [34]: > 100 µM | TGI [35]: > 100 µM | TGI [36]: > 100 µM | TGI [37]: > 100 µM | TGI [38]: > 100 µM | TGI [39]: > 100 µM | TGI [40]: > 100 µM | TGI [41]: > 100 µM | TGI [42]: > 100 µM | TGI [43]: > 100 µM | TGI [44]: > 100 µM | TGI [45]: > 100 µM | TGI [46]: > 100 µM | TGI [47]: > 100 µM | TGI [48]: > 100 µM | TGI [49]: > 100 µM | TGI [50]: > 100 µM | TGI [51]: > 100 µM | TGI [52]: > 100 µM | TGI [53]: > 100 µM | TGI [54]: > 100 µM | TGI [55]: > 100 µM | TGI [56]: > 100 µM | TGI [57]: > 100 µM | TGI [58]: > 100 µM | TGI [59]: > 100 µM

CCN(CC)/[N+]([O-])=N/OCOC
TGI [1]: > 100 µM | TGI [2]: > 100 µM | TGI [3]: > 100 µM | TGI [4]: > 100 µM | TGI [5]: > 100 µM | TGI [6]: > 100 µM | TGI [7]: > 100 µM | TGI [8]: > 100 µM | TGI [9]: > 100 µM | TGI [10]: > 100 µM | TGI [11]: > 100 µM | TGI [12]: > 100 µM | TGI [13]: > 100 µM | TGI [14]: > 100 µM | TGI [15]: > 100 µM | TGI [16]: > 100 µM | TGI [17]: > 100 µM | TGI [18]: > 100 µM | TGI [19]: > 100 µM | TGI [20]: > 100 µM | TGI [21]: > 100 µM | TGI [22]: > 100 µM | TGI [23]: > 100 µM | TGI [24]: > 100 µM | TGI [25]: > 100 µM | TGI [26]: > 100 µM | TGI [27]: > 100 µM | TGI [28]: > 100 µM | TGI [29]: > 100 µM | TGI [30]: > 100 µM | TGI [31]: > 100 µM | TGI [32]: > 100 µM | TGI [33]: > 100 µM | TGI [34]: > 100 µM | TGI [35]: > 100 µM | TGI [36]: > 100 µM | TGI [37]: > 100 µM | TGI [38]: > 100 µM | TGI [39]: > 100 µM | TGI [40]: > 100 µM | TGI [41]: > 100 µM | TGI [42]: > 100 µM | TGI [43]: > 100 µM | TGI [44]: > 100 µM | TGI [45]: > 100 µM | TGI [46]: > 100 µM | TGI [47]: > 100 µM | TGI [48]: > 100 µM | TGI [49]: > 100 µM | TGI [50]: > 100 µM | TGI [51]: > 100 µM | TGI [52]: > 100 µM | TGI [53]: > 100 µM | TGI [54]: > 100 µM | TGI [55]: > 100 µM | TGI [56]: > 100 µM | TGI [57]: > 100 µM | TGI [58]: > 100 µM | TGI [59]: > 100 µM

[Cl][Hg][c]1ccc2ccccc2c1
GI50 [1]: 0.257 µM | TGI [1]: 5.86 µM | GI50 [2]: 0.284 µM | TGI [2]: 1.97 µM | GI50 [3]: 1.77 µM | TGI [3]: 13.1 µM | GI50 [4]: 0.655 µM | TGI [4]: 2.36 µM | GI50 [5]: 1.46 µM | TGI [5]: 2.96 µM | GI50 [6]: 1.74 µM | TGI [6]: 3.5 µM | GI50 [7]: 2.07 µM | TGI [7]: 5.61 µM | GI50 [8]: 1.6 µM | TGI [8]: 3.03 µM | GI50 [9]: 1.81 µM | TGI [9]: 4.45 µM | GI50 [10]: 2.02 µM | TGI [10]: 4.73 µM | GI50 [11]: 1.46 µM | TGI [11]: 2.82 µM | GI50 [12]: 7.55 µM | TGI [12]: 16.5 µM | GI50 [13]: 12.1 µM | TGI [13]: 27.1 µM | GI50 [14]: 14.2 µM | TGI [14]: 36.3 µM | GI50 [15]: 2.05 µM | TGI [15]: 4.85 µM | GI50 [16]: 2.3 µM | TGI [16]: 5.18 µM | GI50 [17]: 1.5 µM | TGI [17]: 2.88 µM | GI50 [18]: 0.924 µM | TGI [18]: 9.32 µM | GI50 [19]: 1.68 µM | TGI [19]: 3.44 µM | GI50 [20]: 2.5 µM | TGI [20]: 10.1 µM | GI50 [21]: 3.18 µM | TGI [21]: 7.59 µM | GI50 [22]: 7.66 µM | TGI [22]: 22.6 µM | GI50 [23]: 2.24 µM | TGI [23]: 5.79 µM | GI50 [24]: 4.44 µM | TGI [24]: 8.23 µM | GI50 [25]: 2.57 µM | TGI [25]: 7.21 µM | GI50 [26]: 3.87 µM | TGI [26]: 9.44 µM | GI50 [27]: 1.77 µM | TGI [27]: 3.62 µM | GI50 [28]: 1.62 µM | TGI [28]: 3.04 µM | GI50 [29]: 2.41 µM | TGI [29]: 8.84 µM | GI50 [30]: 2.22 µM | TGI [30]: 5.91 µM | GI50 [31]: 3.07 µM | TGI [31]: 7.96 µM | GI50 [32]: 1.31 µM | TGI [32]: 2.68 µM | GI50 [33]: 1.79 µM | TGI [33]: 3.63 µM | GI50 [34]: 0.821 µM | TGI [34]: 2.37 µM | GI50 [35]: 3.64 µM | TGI [35]: 6.97 µM | GI50 [36]: 2.69 µM | TGI [36]: 6.71 µM | GI50 [37]: 1.6 µM | TGI [37]: 3.92 µM | GI50 [38]: 1.25 µM | TGI [38]: 3.13 µM | GI50 [39]: 2.01 µM | TGI [39]: 15.2 µM | GI50 [40]: 1.31 µM | TGI [40]: 3.02 µM | GI50 [41]: 0.862 µM | TGI [41]: 9.77 µM | GI50 [42]: 2.8 µM | TGI [42]: 9.58 µM | GI50 [43]: 1.58 µM | TGI [43]: 3.18 µM | GI50 [44]: 1.51 µM | TGI [44]: 3.95 µM | GI50 [45]: 3.93 µM | TGI [45]: 11.8 µM | GI50 [46]: 2.32 µM | TGI [46]: 6.17 µM | GI50 [47]: 4.18 µM | TGI [47]: 23.8 µM | GI50 [48]: 1.97 µM | TGI [48]: 4.33 µM | GI50 [49]: 7.01 µM | TGI [49]: 18.9 µM | GI50 [50]: 1.76 µM | TGI [50]: 3.21 µM | GI50 [51]: 4.33 µM | TGI [51]: 11.8 µM | GI50 [52]: 1.92 µM | TGI [52]: 3.46 µM | GI50 [53]: 4.97 µM | TGI [53]: 15.3 µM | GI50 [54]: 1.78 µM | TGI [54]: 3.4 µM | GI50 [55]: 2.22 µM | TGI [55]: 5.21 µM | GI50 [56]: 3.92 µM | TGI [56]: 11.8 µM | GI50 [57]: 2.92 µM | TGI [57]: 6.62 µM | GI50 [58]: 3.96 µM | TGI [58]: 12.4 µM | GI50 [59]: 1.76 µM | TGI [59]: 3.57 µM
